Source: US20240173347A1, “COMPOSITIONS FOR RAISING NAD LEVELS AND METHODS AND USES THEREOF” (ACCURI, LLC, priority 2022, published 2024)

Test system: intracellular NAD
Assay: Intracellular NAD levels in users before and after supplementation
Format: in vivo, human
Conditions: intravenous infusion, 5 sessions of 750 mg

NC(=O)c1ccc[n+]([C@@H]2O[C@H](COP(=O)([O-])OP(=O)(O)OC[C@H]3O[C@@H](n4cnc5c(N)ncnc54)[C@H](O)[C@@H]3O)[C@@H](O)[C@H]2O)c1 [NAD+, Nicotinamide adenine dinucleotide]
Effect on intracellular NAD levels: does not increase
